Data as given in US20200237759A1, “DOSAGE REGIME AND METHOD FOR TREATING PULMONARY ARTERIAL HYPERTENSION” (Altavant Sciences GmbH, priority 2019, published 2020).

Experiment: Part 2 MAD plasma pharmacokinetics, BID oral KAR5585 for 14 days
Conditions: for tmax: Median
[1] = 100 mg (Cohort 2) to 400 mg (Cohort 4) BID fed, 4-fold increase in dose
[2] = 100 mg BID fasted, Cohort 1, Day 1 AM, Mean
[3] = 100 mg BID fasted, Cohort 1, Day 14, Mean
[4] = 100 mg BID fed, Cohort 2, Day 1 AM, Mean
[5] = 100 mg BID fed, Cohort 2, Day 1 PM, Geo. Mean
[6] = 100 mg BID fed, Cohort 2, Day 1 PM, Mean
[7] = 100 mg BID fed, Cohort 2, Day 7 AM, Geo. Mean
[8] = 100 mg BID fed, Cohort 2, Day 7 AM, Mean
[9] = 100 mg BID fed, Cohort 2, Day 7 PM, Geo. Mean
[10] = 100 mg BID fed, Cohort 2, Day 14 AM, Geo. Mean
[11] = 100 mg BID fed, Cohort 2, Day 14 AM, Mean
[12] = 100 mg KAR5585 BID, fasted (Part 2, Cohort 1)
[13] = 200 mg BID fed, Cohort 3, Day 1 AM, Geo. Mean
[14] = 200 mg BID fed, Cohort 3, Day 1 PM, Geo. Mean
[15] = 200 mg BID fed, Cohort 3, Day 7 AM, Geo. Mean
[16] = 200 mg BID fed, Cohort 3, Day 7 AM, Mean
[17] = 200 mg BID fed, Cohort 3, Day 7 PM, Geo. Mean
[18] = 200 mg BID fed, Cohort 3, Day 7 PM, Mean
[19] = 200 mg BID fed, Cohort 3, Day 14 AM, Geo. Mean
[20] = 200 mg BID fed, Cohort 3, Day 14 AM, Mean
[21] = 400 mg BID fed, Cohort 4, Day 1 AM, Geo. Mean
[22] = 400 mg BID fed, Cohort 4, Day 1 PM, Geo. Mean
[23] = 400 mg BID fed, Cohort 4, Day 7 AM, Geo. Mean
[24] = 400 mg BID fed, Cohort 4, Day 7 PM, Geo. Mean
[25] = 400 mg BID fed, Cohort 4, Day 7 PM, Mean
[26] = 400 mg BID fed, Cohort 4, Day 14 AM, Geo. Mean
[27] = 400 mg BID fed, Cohort 4, Day 14 AM, Mean

Experimental: Food effect was to be evaluated in Part 1, Period 2.
Part 2 (MAD): BID doses (separated by approximately 12 hours on Days 1 to 13) and a single AM dose on Day 14. One or more of the MAD Cohort could have been dosed once daily (QD).
Pharmacokinetic data were to be summarized descriptively.

For `Nc1nc(O[C@H](c2ccc(Cl)cc2-c2ccccc2)C(F)(F)F)cc(N2CCC3(CC2)CN[C@H](C(=O)O)C3)n1` [KAR5417, (S)-8-(2-amino-6-((R)-1-(5-chloro-[1,1′-biphenyl]-2-yl)-2,2,2-trifluoroeth-oxy)pyrimidin-4-yl)-2,8-diazaspiro[4.5]decane-3-carboxylic acid], the “increase in mean AUC0-12, Day 1” value [1] was 7.0 fold, the “increase in mean AUC0-12, Day 14” value [1] was 4.6 fold and the “increase in mean AUC0-24, Day 1” value [1] was 6.45 fold. The “increase in mean AUC0-24, Day 14” value [1] was 4.45 fold, the “increase in mean Cmax, Day 1” value [1] was 6.9 fold and the “increase in mean Cmax, Day 14” value [1] was ~4.5 fold. For the same compound, the AUC0-12 [2] was 741 ng·h/mL, the Cmax [2] was 121 ng/mL and the t1/2 [2] was 3.43 h. The tmax (100 mg BID fasted, Cohort 1, Day 1 AM) was 3.0 h, the AUC0-12 [3] was 1280 ng·h/mL and the AUC0-24 [3] was 1650 ng·h/mL. The Cmax [3] was 194 ng/mL, the t1/2 [3] was 18.8 h and the tmax (100 mg BID fasted, Cohort 1, Day 14) was 3.0 h. It also gave a t1/2 (100 mg BID fed, Cohort 2, Day 1 AM, Geo. Mean) of 4.16 h, an AUC0-12 [4] of 470 ng·h/mL and a Cmax [4] of 85.9 ng/mL. For the same compound, the tmax (100 mg BID fed, Cohort 2, Day 1 AM) was 2.0 h, the AUC0-12 [5] was 714 ng·h/mL and the AUC0-24 [5] was 1160 ng·h/mL. For the same compound, the “AUC0-∞” value [5] was 1090 ng·h/mL, the Cmax [5] was 119 ng/mL and the AUC0-12 [6] was 748 ng·h/mL. It also gave an AUC0-24 [6] of 1220 ng·h/mL, a tmax (100 mg BID fed, Cohort 2, Day 1 PM) of 3.0 h and an AUC0-12 [7] of 1050 ng·h/mL. For the same compound, the “AUC0-∞” value [7] was 1380 ng·h/mL, the t1/2 [7] was 5.24 h and the Cmax [8] was 168 ng/mL. It also gave a t1/2 [8] of 5.31 h, a tmax (100 mg BID fed, Cohort 2, Day 7 AM) of 3.0 h and an AUC0-12 [9] of 875 ng·h/mL. The AUC0-24 [9] was 1930 ng·h/mL, the “AUC0-∞” value [9] was 1700 ng·h/mL and the Cmax [9] was 106 ng/mL. For the same compound, the t1/2 [9] was 7.91 h, the Cmax (100 mg BID fed, Cohort 2, Day 7 PM, Mean) was 112 ng/mL and the tmax (100 mg BID fed, Cohort 2, Day 7 PM) was 6.0 h. For the same compound, the RCmax (100 mg BID fed, Cohort 2, Day 14 AM, Day 14/Day 1 accumulation ratio, Geo. Mean) was 1.90, the AUC0-12 [10] was 900 ng·h/mL and the AUC0-24 [10] was 1220 ng·h/mL. For the same compound, the “AUC0-∞” value [10] was 1780 ng·h/mL, the Cmax [10] was 155 ng/mL and the t1/2 [10] was 19.0 h. It also gave an AUC0-12 [11] of 943 ng·h/mL, an AUC0-24 [11] of 1270 ng·h/mL and a Cmax [11] of 168 ng/mL. For the same compound, the t1/2 [11] was 19.6 h, the tmax (100 mg BID fed, Cohort 2, Day 14 AM) was 2.0 h and the “time to peak plasma concentrations (range), Day 1” value (100 mg KAR5585 BID, Part 2 Cohort 1 (fasted state)) was 2.0 to 6.0 h. The “median tmax Day 14” value (100 mg KAR5585 BID, fasted) was 3.0 hour postdose, the “mean peak concentration relative to corresponding peak mean concentration of KAR5585, Day 1” value [12] was “approximately 7.25 fold” and the “mean peak concentration relative to corresponding peak mean concentration of KAR5585, Day 14” value [12] was ~9.1 fold. The “half-life, Day 14” value (100 mg KAR5585 BID, fasted state) was 18.8 h, the “median tmax Day 14” value (100 mg KAR5585 BID, fed) was 3.0 hour postdose and the AUC0-12 [13] was 1620 ng·h/mL. For the same compound, the “AUC0-∞” value [13] was 1980 ng·h/mL, the t1/2 [13] was 4.41 h and the AUC0-12 (200 mg BID fed, Cohort 3, Day 1 AM, Mean) was 1700 ng·h/mL. For the same compound, the tmax (200 mg BID fed, Cohort 3, Day 1 AM) was 3.0 h, the AUC0-24 [14] was 3540 ng·h/mL and the “AUC0-∞” value [14] was 2640 ng·h/mL. The Cmax [14] was 307 ng/mL, the t1/2 [14] was 5.95 h and the AUC0-12 (200 mg BID fed, Cohort 3, Day 1 PM, Mean) was 2000 ng·h/mL. The tmax (200 mg BID fed, Cohort 3, Day 1 PM) was 4.0 h, the RCmax (200 mg BID fed, Cohort 3, Day 7 AM, Day 7/Day 1 accumulation ratio, Mean) was 1.00 and the “AUC0-∞” value [15] was 2610 ng·h/mL. For the same compound, the Cmax [15] was 332 ng/mL, the t1/2 [15] was 4.57 h and the “AUC0-∞” value [16] was 2800 ng·h/mL. For the same compound, the Cmax [16] was 359 ng/mL, the t1/2 [16] was 4.61 h and the tmax (200 mg BID fed, Cohort 3, Day 7 AM) was 4.0 h. For the same compound, the AUC0-12 [17] was 1490 ng·h/mL, the AUC0-24 [17] was 3620 ng·h/mL and the “AUC0-∞” value [17] was 2270 ng·h/mL. The Cmax [17] was 212 ng/mL, the t1/2 [17] was 6.48 h and the AUC0-12 [18] was 1540 ng·h/mL. The AUC0-24 [18] was 3810 ng·h/mL, the “AUC0-∞” value [18] was 2280 ng·h/mL and the Cmax [18] was 222 ng/mL. The tmax (200 mg BID fed, Cohort 3, Day 7 PM) was 8.0 h, the AUC0-12 [19] was 1670 ng·h/mL and the AUC0-24 [19] was 2200 ng·h/mL. The t1/2 [19] was 24.1 h, the AUC0-12 [20] was 1820 ng·h/mL and the AUC0-24 [20] was 2380 ng·h/mL. The Cmax [20] was 319 ng/mL, the t1/2 [20] was 25.0 h and the tmax (200 mg BID fed, Cohort 3, Day 14 AM) was 3.0 h. The “AUC0-∞” value [21] was 3400 ng·h/mL, the t1/2 [21] was 3.71 h and the “AUC0-∞” value (400 mg BID fed, Cohort 4, Day 1 AM, Mean) was 3780 ng·h/mL. The tmax (400 mg BID fed, Cohort 4, Day 1 AM) was 3.0 h, the “AUC0-∞” value [22] was 6860 ng·h/mL and the t1/2 [22] was 5.3 h. The tmax (400 mg BID fed, Cohort 4, Day 1 PM) was 4.0 h, the RCmax (400 mg BID fed, Cohort 4, Day 7 AM, Day 7/Day 1 accumulation ratio, Mean) was 2.00 and the “AUC0-∞” value [23] was 7480 ng·h/mL. For the same compound, the Cmax [23] was 960 ng/mL, the t1/2 [23] was 3.89 h and the t1/2 (400 mg BID fed, Cohort 4, Day 7 AM, Mean) was 3.94 h. For the same compound, the tmax (400 mg BID fed, Cohort 4, Day 7 AM) was 4.0 h, the RAUC0-12 (400 mg BID fed, Cohort 4, Day 7 PM, Day 7/Day 1 accumulation ratio, Geo. Mean) was 1.50 and the AUC0-12 [24] was 4360 ng·h/mL. The “AUC0-∞” value [24] was 6450 ng·h/mL, the Cmax [24] was 574 ng/mL and the t1/2 [24] was 5.08 h. The AUC0-12 [25] was 4610 ng·h/mL, the “AUC0-∞” value [25] was 6520 ng·h/mL and the Cmax [25] was 608 ng/mL. For the same compound, the t1/2 [25] was 5.10 h, the tmax (400 mg BID fed, Cohort 4, Day 7 PM) was 6.0 h and the AUC0-12 [26] was 4160 ng·h/mL. The AUC0-24 [26] was 5410 ng·h/mL, the “AUC0-∞” value [26] was 8120 ng·h/mL and the Cmax [26] was 717 ng/mL. For the same compound, the t1/2 [26] was 30.4 h, the AUC0-12 [27] was 4350 ng·h/mL and the Cmax [27] was 749 ng/mL. The t1/2 [27] was 30.6 h, the tmax (400 mg BID fed, Cohort 4, Day 14 AM) was 3.0 h and the “tmax Day 7 evening dose” value (400 mg KAR5585 BID, fed) was 6 h. The “study day by which steady-state plasma levels were achieved” value (BID oral KAR5585 for 14 days) was ≤ 7 days.
